Legend:
[1] = test system: Streptococcus salivarius; experiment: IC25 growth inhibition; higher = less potent
In short: (§1)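 Monocultures grown overnight in mGAM were added to pre-reduced plates holding twofold drug dilutions, giving a starting OD578 of 0.01 and 1% DMSO (or water). Growth was followed anaerobically by hourly OD578 readings in a plate reader, with at least three biological replicates. The median growth-curve AUC per concentration was forced to be monotonic. IC25 was the lowest concentration with median AUC below 0.75, reported as a tested interval.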

[2] = test system: Collinsella aerofaciens; experiment: IC25 growth inhibition; higher = less potent
In short: as §1

[3] = test system: Vibrio cholerae; experiment: IC25 growth inhibition; higher = less potent
In short: as §1

[4] = test system: Bacteroides fragilis NT; experiment: IC25 growth inhibition; higher = less potent
In short: as §1

[5] = test system: Escherichia coli ED1a; experiment: IC25 growth inhibition; higher = less potent
In short: as §1

[6] = test system: Yersinia enterocolitica WA-314; experiment: IC25 growth inhibition; higher = less potent
In short: as §1

[7] = test system: Bacteroides vulgatus; experiment: IC25 growth inhibition; higher = less potent
In short: as §1

[8] = test system: Streptococcus parasanguinis; experiment: IC25 growth inhibition; higher = less potent
In short: as §1

[9] = test system: Dorea formicigenerans; experiment: IC25 growth inhibition; higher = less potent
In short: as §1

[10] = test system: Fusobacterium nucleatum subsp. Nucleatum; experiment: IC25 growth inhibition; higher = less potent
In short: as §1

[11] = test system: Eubacterium rectale; experiment: IC25 growth inhibition; higher = less potent
In short: as §1

[12] = test system: Parabacteroides merdae; experiment: IC25 growth inhibition; higher = less potent
In short: as §1

[13] = test system: Clostridium perfringens; experiment: IC25 growth inhibition; higher = less potent
In short: as §1

[14] = test system: Ruminococcus gnavus; experiment: IC25 growth inhibition; higher = less potent
In short: as §1

[15] = test system: Clostridium bolteae; experiment: IC25 growth inhibition; higher = less potent
In short: as §1

[16] = test system: Roseburia intestinalis; experiment: IC25 growth inhibition; higher = less potent
In short: as §1

[17] = test system: Coprococcus comes; experiment: IC25 growth inhibition; higher = less potent
In short: as §1

[18] = test system: Clostridium ramosum; experiment: IC25 growth inhibition; higher = less potent
In short: as §1

[19] = test system: Shigella flexneri; experiment: IC25 growth inhibition; higher = less potent
In short: as §1

[20] = test system: Salmonella enterica typhimurium; experiment: IC25 growth inhibition; higher = less potent
In short: as §1

[21] = test system: Bacteroides thetaiotaomicron; experiment: IC25 growth inhibition; higher = less potent
In short: as §1

[22] = test system: Clostridium saccharolyticum; experiment: IC25 growth inhibition; higher = less potent
In short: as §1

[23] = test system: Bacteroides uniformis; experiment: IC25 growth inhibition; higher = less potent
In short: as §1

[24] = test system: Yersinia pseudotuberculosis; experiment: IC25 growth inhibition; higher = less potent
In short: as §1

[25] = test system: Com21 synthetic gut community; experiment: community biomass OD578 after 24 h drug treatment relative to untreated (fraction of untreated control); higher = more community growth; conditions: community: Com21 (Com20 + E. coli ED1a)
Protocol: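 Com21 (Com20 plus E. coli ED1a) was treated with drug for 24 h under anaerobic conditions in mGAM. Community OD578 was then measured and normalised to untreated Com21; mean of 3 biological replicates.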

[26] = drug pretreatment concentration 10 µM
[27] = drug pretreatment concentration 20 µM
[28] = drug pretreatment concentration 40 µM
[29] = drug pretreatment concentration 80 µM
[30] = drug pretreatment concentration 160 µM
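Wherever IC25 growth inhibition is given: lowest concentration where monotonic median growth AUC falls below 0.75 of drug-free control.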

| SMILES | IC25 growth inhibition [1] | IC25 growth inhibition [2] | IC25 growth inhibition [3] | IC25 growth inhibition [4] | IC25 growth inhibition [5] | IC25 growth inhibition [6] | IC25 growth inhibition [7] | IC25 growth inhibition [8] | IC25 growth inhibition [9] | IC25 growth inhibition [10] | IC25 growth inhibition [11] | IC25 growth inhibition [12] | IC25 growth inhibition [13] | IC25 growth inhibition [14] | IC25 growth inhibition [15] | IC25 growth inhibition [16] | IC25 growth inhibition [17] | IC25 growth inhibition [18] | IC25 growth inhibition [19] | IC25 growth inhibition [20] | IC25 growth inhibition [21] | IC25 growth inhibition [22] | IC25 growth inhibition [23] | IC25 growth inhibition [24] | community biomass OD578 [25, 26] | community biomass OD578 [25, 27] | community biomass OD578 [25, 28] | community biomass OD578 [25, 29] | community biomass OD578 [25, 30] | community biomass OD578 ([25]; drug pretreatment concentration 2.5 µM) | community biomass OD578 ([25]; drug pretreatment concentration 5 µM) |
| --- | --- | --- | --- | --- | --- | --- | --- | --- | --- | --- | --- | --- | --- | --- | --- | --- | --- | --- | --- | --- | --- | --- | --- | --- | --- | --- | --- | --- | --- | --- | --- |
| C[C@H]1O[C@H](O[C@H]2[C@H](O)[C@@H](O)[C@@H](O[C@H]3[C@H](O)[C@@H](O)C(O)O[C@@H]3CO)O[C@@H]2CO)[C@H](O)[C@@H](O)[C@@H]1N[C@H]1C=C(CO)[C@@H](O)[C@H](O)[C@H]1O (stereo partly drawn) [Acarbose] | > 160 µM | > 160 µM | > 160 µM | ≤ 10 µM | > 160 µM | > 160 µM | ≤ 40 µM | > 160 µM | > 160 µM | > 160 µM | ≤ 40 µM | > 160 µM | > 160 µM | > 160 µM | > 160 µM | ≤ 20 µM | > 160 µM | > 160 µM | > 160 µM | > 160 µM | > 160 µM | > 160 µM | > 160 µM | > 160 µM | 1.03 | 1.01 | 1 | 1 | 0.989 | – | – |
| C[C@@H](O[C@H]1OCCN(Cc2n[nH]c(=O)[nH]2)[C@H]1c1ccc(F)cc1)c1cc(C(F)(F)F)cc(C(F)(F)F)c1 [Aprepitant] | > 160 µM | > 80 µM | > 160 µM | > 160 µM | > 160 µM | > 160 µM | > 160 µM | > 160 µM | > 160 µM | > 160 µM | > 160 µM | > 160 µM | > 160 µM | > 160 µM | > 160 µM | > 160 µM | > 160 µM | > 160 µM | > 160 µM | > 160 µM | > 160 µM | > 160 µM | > 160 µM | > 80 µM | 1 | 0.981 | 0.788 | 1.03 | 1.01 | – | – |
| CCc1oc2ccccc2c1C(=O)c1cc(Br)c(O)c(Br)c1 [Benzbromarone] | ≤ 10 µM | ≤ 40 µM | ≤ 160 µM | ≤ 20 µM | > 160 µM | > 160 µM | ≤ 20 µM | ≤ 10 µM | ≤ 40 µM | ≤ 80 µM | ≤ 20 µM | ≤ 20 µM | ≤ 10 µM | ≤ 20 µM | ≤ 40 µM | ≤ 40 µM | ≤ 40 µM | ≤ 20 µM | > 160 µM | > 160 µM | ≤ 20 µM | ≤ 10 µM | ≤ 10 µM | > 160 µM | 0.877 | 0.86 | 0.812 | 0.687 | 0.301 | – | – |
| CN(C)CCCN1c2ccccc2Sc2ccc(Cl)cc21 [Chlorpromazine] | ≤ 80 µM | ≤ 160 µM | ≤ 160 µM | ≤ 80 µM | ≤ 160 µM | > 160 µM | ≤ 40 µM | ≤ 160 µM | ≤ 40 µM | ≤ 80 µM | ≤ 40 µM | ≤ 40 µM | ≤ 80 µM | ≤ 40 µM | ≤ 160 µM | ≤ 80 µM | ≤ 160 µM | > 160 µM | ≤ 160 µM | > 160 µM | ≤ 80 µM | ≤ 80 µM | ≤ 80 µM | ≤ 160 µM | 1 | 0.983 | 0.941 | 0.927 | 0.813 | – | – |
| CN(C)CC/C=C1/c2ccccc2Sc2ccc(Cl)cc21 [Chlorprothixene] | ≤ 160 µM | ≤ 160 µM | ≤ 20 µM | ≤ 80 µM | > 160 µM | > 160 µM | ≤ 40 µM | > 160 µM | ≤ 40 µM | ≤ 80 µM | ≤ 80 µM | ≤ 160 µM | ≤ 80 µM | ≤ 160 µM | ≤ 160 µM | ≤ 40 µM | ≤ 160 µM | > 160 µM | ≤ 160 µM | > 160 µM | ≤ 40 µM | ≤ 80 µM | ≤ 40 µM | ≤ 160 µM | 0.988 | 1.02 | 0.99 | 0.965 | 0.48 | – | – |
| COCCOC(=O)C1=C(C)NC(C)=C(C(=O)OC/C=C/c2ccccc2)C1c1cccc([N+](=O)[O-])c1 (stereo not drawn) [Cilnidipine] | > 10 µM | > 10 µM | > 10 µM | > 10 µM | > 40 µM | > 5 µM | > 10 µM | > 20 µM | > 10 µM | > 10 µM | > 10 µM | > 20 µM | > 20 µM | > 20 µM | > 10 µM | > 10 µM | > 10 µM | > 5 µM | > 10 µM | > 5 µM | > 10 µM | > 10 µM | > 40 µM | > 10 µM | 1.06 | 1.03 | 0.993 | – | – | 1.03 | 1 |
| Clc1ccc(Cn2c(CN3CCCC3)nc3ccccc32)cc1 [Clemizole] | > 160 µM | ≤ 20 µM | ≤ 80 µM | > 160 µM | > 160 µM | > 160 µM | ≤ 160 µM | > 160 µM | ≤ 2.5 µM | ≤ 160 µM | ≤ 2.5 µM | ≤ 160 µM | ≤ 160 µM | ≤ 10 µM | > 160 µM | ≤ 5 µM | ≤ 2.5 µM | ≤ 10 µM | > 160 µM | > 160 µM | ≤ 160 µM | ≤ 80 µM | > 160 µM | > 160 µM | 1.01 | 1 | 1.03 | 1.02 | 0.964 | – | – |
